Usually GI50 stands for the concentration that inhibits growth by half. What is called TGI is the concentration giving total growth inhibition. Lower therefore signals more potent growth arrest.

The structures appear in SMILES notation. “And” between values parts separate entries of the source, which are not always exact repeats. Identical values can stand only once.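 Each compound was tested at five concentrations against cells in 96-well plates for 48 hours. Here, GI50 denotes the concentration required for 50% inhibition of growth. TGI marks complete inhibition of growth.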

Among the test systems are A549 NSCLC; CCRF-CEM leukemia; SK-MEL-5 melanoma; LOX IMVI melanoma; NCI/ADR-RES ovarian; SF-295 CNS; NCI-H226 lung; UACC-62 melanoma; MDA-MB-231 breast; HS 578T breast.
Test in all cases: DTP human tumour cell line panel, 48 h

Take `CC1=C2[C@@H](CC1)[C@]1(C)O[C@@](C3CCCCC3)(C[C@H]1OC(=O)CO)[C@H]2OC(=O)/C=C/c1ccccc1`: the GI50 in the experiment on A549 NSCLC is 7.19 µM; with CCRF-CEM leukemia, 7.45 µM; with SK-MEL-5 melanoma, 12 µM; in the experiment with LOX IMVI melanoma, 5.31 µM; in the experiment with NCI/ADR-RES ovarian, 0.186 µM; in the experiment on SF-295 CNS, 6.45 µM. The GI50 with NCI-H226 lung is 7.58 µM; in the experiment with UACC-62 melanoma, 9.82 µM; in the experiment on MDA-MB-231 breast, 18.3 µM; in the experiment with HS 578T breast it was 0.0202 µM. Moreover, the TGI in the experiment on A549 NSCLC was 20.5 µM; in the experiment on CCRF-CEM leukemia it was 24.1 µM; with SK-MEL-5 melanoma, 24.9 µM; in the experiment on LOX IMVI melanoma, 11.2 µM; with NCI/ADR-RES ovarian it was 11.6 µM; with SF-295 CNS, 19 µM. Also, the TGI in the experiment with NCI-H226 lung was 23.5 µM; with UACC-62 melanoma it was 25.8 µM; with MDA-MB-231 breast, 41.5 µM; with HS 578T breast, 0.281 µM.

As to `CC(=O)c1c(C)[nH]c(-c2nc3ccc(N4CCN(C)CC4)cc3[nH]2)c1-c1ccc(OCC2CCOCC2)cc1`, the GI50 was 0.714 µM in the experiment with A549 NSCLC; 0.654 µM in the experiment on CCRF-CEM leukemia; 0.966 µM with SK-MEL-5 melanoma; 0.318 µM in the experiment on LOX IMVI melanoma; 1.02 µM with NCI/ADR-RES ovarian; 2.67 µM in the experiment on SF-295 CNS. The GI50 is 1.87 µM in the experiment with NCI-H226 lung, 0.172 µM with UACC-62 melanoma, 0.946 µM with MDA-MB-231 breast and 0.346 µM with HS 578T breast. Also, the TGI in the experiment with A549 NSCLC is 17.8 µM; in the experiment with CCRF-CEM leukemia, more than 47.1 µM; in the experiment on SK-MEL-5 melanoma, 3.17 µM; in the experiment with LOX IMVI melanoma it was 1.45 µM; in the experiment with NCI/ADR-RES ovarian, 30.5 µM; with SF-295 CNS, 15.3 µM. Further, the TGI in the experiment with NCI-H226 lung worked out at 21.2 µM; in the experiment with UACC-62 melanoma it was 11.2 µM; in the experiment with MDA-MB-231 breast, 16.9 µM; in the experiment on HS 578T breast, 8.71 µM.

On to `O=[N+]([O-])c1cc(Cl)c(Cl)c([N+](=O)[O-])c1Cl`, for which the GI50 is 1.78 µM in the experiment with A549 NSCLC; 0.236 µM in the experiment on CCRF-CEM leukemia; 1.73 µM in the experiment on SK-MEL-5 melanoma; 0.299 µM in the experiment with LOX IMVI melanoma; 1.91 µM in the experiment with NCI/ADR-RES ovarian; 1.99 µM in the experiment on SF-295 CNS. Besides, the GI50 in the experiment on NCI-H226 lung was 2.61 µM; in the experiment on UACC-62 melanoma it was 1.94 µM; with MDA-MB-231 breast it was 1.81 µM; in the experiment with HS 578T breast it was 2.35 µM. Also, the TGI is 3.65 µM in the experiment with A549 NSCLC; more than 100 µM in the experiment on CCRF-CEM leukemia; 3.47 µM in the experiment with SK-MEL-5 melanoma; 1.11 µM with LOX IMVI melanoma; 3.75 µM with NCI/ADR-RES ovarian; 4.4 µM in the experiment on SF-295 CNS. The TGI in the experiment on NCI-H226 lung is 7.16 µM; in the experiment with UACC-62 melanoma, 4.35 µM; in the experiment with MDA-MB-231 breast it was 3.79 µM; in the experiment with HS 578T breast, 7.47 µM.

For the compound `Cn1c([N+](=O)[O-])cnc1/C=C1\Oc2ccccc2C1=O`, the GI50 is 1.02 µM with A549 NSCLC; 0.168 µM in the experiment with CCRF-CEM leukemia; 0.234 µM in the experiment on SK-MEL-5 melanoma; 0.176 µM in the experiment with LOX IMVI melanoma; 0.392 µM in the experiment with NCI/ADR-RES ovarian; 1.65 µM in the experiment with SF-295 CNS. For the same compound, the GI50 in the experiment on NCI-H226 lung is 1.68 µM; in the experiment on UACC-62 melanoma, 0.522 µM; with MDA-MB-231 breast, 0.703 µM; with HS 578T breast it was 1.15 µM. Further, the TGI in the experiment on A549 NSCLC stood at 5.12 µM; in the experiment on CCRF-CEM leukemia, 1.38 µM; in the experiment with SK-MEL-5 melanoma it was 0.727 µM; in the experiment with LOX IMVI melanoma, 0.506 µM; in the experiment on NCI/ADR-RES ovarian it was 4.45 µM; in the experiment on SF-295 CNS, 6.19 µM. For the same compound, the TGI turned out to be 4.91 µM with NCI-H226 lung, 2.22 µM in the experiment on UACC-62 melanoma and 4.39 µM with MDA-MB-231 breast.

`CC(C)(C#N)c1cc(Cn2cncn2)cc(C(C)(C)C#N)c1`: the GI50 in the experiment on A549 NSCLC is 933 µM; with CCRF-CEM leukemia it was 393 µM; with SK-MEL-5 melanoma it was 106 µM; with LOX IMVI melanoma, more than 10000 µM; in the experiment on NCI/ADR-RES ovarian, 477 µM; in the experiment with SF-295 CNS it was 299 µM. Further, the GI50 in the experiment on NCI-H226 lung is 718 µM; in the experiment on UACC-62 melanoma it was 768 µM; in the experiment on MDA-MB-231 breast, 539 µM; in the experiment on HS 578T breast it was 289 µM. The TGI was more than 10000 µM with A549 NSCLC; 2480 µM in the experiment on CCRF-CEM leukemia; more than 10000 µM with SK-MEL-5 melanoma; more than 10000 µM in the experiment on LOX IMVI melanoma; more than 10000 µM with NCI/ADR-RES ovarian; more than 10000 µM in the experiment on SF-295 CNS. Besides, the TGI in the experiment on NCI-H226 lung, with UACC-62 melanoma, in the experiment with MDA-MB-231 breast and in the experiment with HS 578T breast was more than 10000 µM each time.

Consider `CN1CCN(CCCN)CC1`, for which the TGI in the experiment on A549 NSCLC, in the experiment on CCRF-CEM leukemia, in the experiment on SK-MEL-5 melanoma, in the experiment with LOX IMVI melanoma, in the experiment with NCI/ADR-RES ovarian and in the experiment with SF-295 CNS was more than 100 µM in each case. Besides, the TGI in the experiment on NCI-H226 lung, in the experiment on UACC-62 melanoma, in the experiment with MDA-MB-231 breast and with HS 578T breast was more than 100 µM each time.

With `CC[C@H](NC(=O)[C@H](C)NC)C(=O)N1C[C@@H](O)C[C@H]1Cc1c(-c2[nH]c3cc(F)ccc3c2C[C@@H]2C[C@H](O)CN2C(=O)[C@H](CC)NC(=O)[C@H](C)NC)[nH]c2cc(F)ccc12`, the GI50 is more than 100 µM in the experiment with A549 NSCLC; 1.51 µM in the experiment with CCRF-CEM leukemia; 26.2 µM in the experiment with SK-MEL-5 melanoma; more than 59.6 µM in the experiment with LOX IMVI melanoma; more than 100 µM with NCI/ADR-RES ovarian; more than 100 µM in the experiment on SF-295 CNS. Further, the GI50 in the experiment with NCI-H226 lung was more than 100 µM; in the experiment with UACC-62 melanoma it was more than 100 µM; in the experiment on MDA-MB-231 breast it was 0.0349 µM; in the experiment on HS 578T breast, more than 23.7 µM. Further, the total growth inhibition concentration (TGI) in the experiment on A549 NSCLC was more than 100 µM; in the experiment with CCRF-CEM leukemia, more than 100 µM; in the experiment with SK-MEL-5 melanoma it was more than 53.8 µM; in the experiment with LOX IMVI melanoma it was more than 100 µM; in the experiment with NCI/ADR-RES ovarian it was more than 100 µM; with SF-295 CNS, more than 100 µM. The TGI with NCI-H226 lung is more than 100 µM; with UACC-62 melanoma, more than 100 µM; with MDA-MB-231 breast, 2.18 µM; in the experiment on HS 578T breast it was more than 100 µM.

Regarding `CO[C@@H]1/C=C\C=C(/C)C(=O)NC2=CC(=O)C(NCCN(C)C)=C(C[C@@H](C)C[C@@H](OC)[C@@H](O)[C@H](C)/C=C(\C)[C@H]1OC(N)=O)C2=O`, the TGI with A549 NSCLC is 13.3 µM and 18.8 µM; in the experiment on CCRF-CEM leukemia, 3.23 µM and 9.76 µM; in the experiment on SK-MEL-5 melanoma, 3.12 µM and 1.12 µM; with LOX IMVI melanoma it was 0.379 µM; with NCI/ADR-RES ovarian it was 29.6 µM and 62.7 µM; in the experiment with SF-295 CNS, 17.2 µM and 11.7 µM. The TGI with NCI-H226 lung is 31.2 µM and 12.4 µM; in the experiment with UACC-62 melanoma, 1.25 µM and 3.87 µM; in the experiment on MDA-MB-231 breast it was 7.26 µM and 2.24 µM; with HS 578T breast, 38.3 µM and 76.3 µM. The GI50 in the experiment on CCRF-CEM leukemia is 0.0344 µM; in the experiment with SK-MEL-5 melanoma it was < 0.01 µM and 0.0238 µM; in the experiment on LOX IMVI melanoma it was less than 0.013 µM; with NCI/ADR-RES ovarian, 5.55 µM and 17.7 µM; in the experiment on SF-295 CNS it was 0.0278 µM; with MDA-MB-231 breast it was 0.019 µM and 0.018 µM.
